Laboratory results published in article PMC3429506, “Screening for Novel LRRK2 Inhibitors Using a High-Throughput TR-FRET Cellular Assay for LRRK2 Ser935 Phosphorylation” (PLoS ONE, 2012).

Legend:
LRRK2 G2019S [1] = target: T1, LRRK2 G2019S (Homo sapiens, UniProt Q5S007, G2019S); assay: In vitro biochemical LRRK2 TR-FRET activity assay
Procedure: The Biochemical LRRK2 TR-FRET activity assay was performed according to the manufacture recommended assay protocol (Life Technologies). […] After incubation at room temperature for 1 hour, the kinase reactions were stopped by addition of 10 µL of 20 mM EDTA and 4 nM Tb-anti-pERM (pLRRKtide) antibody in TR-FRET dilution buffer (Life Technologies). After a 30 minute incubation at room temperature, TR-FRET measurements were obtained on a BMG PHERAstar plate reader using LanthaScreen® filters and settings. A 16 point, 2-fold dilution series of each compound was tested in triplicate at each concentration and assays were also performed in triplicate.

in vitro = conditions: human
LRRK2 wild-type [2] = target: T2, LRRK2 wild-type (Homo sapiens, UniProt Q5S007); assay: TR-FRET cellular assay for LRRK2 Ser935 phosphorylation, U-2 OS cells, BacMam LRRK2-GFP wild-type; format: cell-based; design: This high-throughput assay utilizes cells expressing full-length human LRRK2 with a C-terminal GFP tag (LRRK2-GFP); host or cells: U-2 OS cells transduced with BacMam; conditions: WT, +/- SD, three independent experiments, * = partial inhibition, read-out: IC50, TR-FRET cell-based assay for Ser935 phosphorylation of LRRK2
Procedure: (§1) U-2 OS cells are maintained in growth medium (McCoy’s 5A supplemented with 10% dialyzed FBS (dFBS), 10 mM HEPES, 0.1 mM NEAA, 1 mM Sodium Pyruvate, and 100 U/mL Penicillin/100 µg/mL Streptomycin). HEK293T cells are maintained in DMEM with 10% dFBS, 10 mM HEPES, 0.1 mM NEAA and 100 U/mL Penicillin/100 µg/mL Streptomycin. SH-SY5Y cells are maintained in DMEM/F-12 medium supplemented with 10% dFBS and 100 U/mL Penicillin/100 µg/mL Streptomycin. […] GIBCO® human neural stem cells (hNSCs) were propagated as an adherent culture in StemPro® NSC SFM according to the manufacturer’s recommended protocol (Life Technologies). For BacMam transduction of U-2 OS and HEK293T, cells were harvested, mixed with various amounts of BacMam LRRK2-GFP reagent (v/v) and plated onto 6-well plates. […] Cells were assayed in 384-well format (∼20,000 cells/well) 48 hours post-transduction as above.
(§2) Transduced cells in the 384-well assay plate were incubated with indicated inhibitors (5X, 5 µL/well) for 60 to 90 minutes. During this time, 6 X lysis buffer (Life Technologies) was supplemented with 30 nM Tb-labeled anti-LRRK2 pSer935 antibody and both protease and phosphatase inhibitor cocktails (Sigma). The complete 6 X lysis buffer was added to each well (5 µL/well) and the plates were incubated at room temperature in the dark for 2 hours. […] A sigmoidal dose-response equation with varying slope was used to fit the data and generate IC50 values. Z′-factor values were calculated as: Z′-factor = 1 - [(3 × stdevno virus +3 × stdevmaxvirus)/(avgmaxvirus – avgno-virus)]. The IC50 values reported in Table 1 are the averaged numbers from three independent experiments.

LRRK2 wild-type [3] = target: T2, LRRK2 wild-type; assay: TR-FRET cellular assay for LRRK2 Ser935 phosphorylation, SH-SY5Y cells, BacMam LRRK2-GFP wild-type; format: cell-based; design: This high-throughput assay utilizes cells expressing full-length human LRRK2 with a C-terminal GFP tag (LRRK2-GFP); host or cells: SH-SY5Y cells transduced with BacMam; conditions: WT, +/- SD, three independent experiments, * = partial inhibition, read-out: IC50, TR-FRET cell-based assay for Ser935 phosphorylation of LRRK2
Procedure: as §1, §2

LRRK2 G2019S [4] = target: T1, LRRK2 G2019S; assay: TR-FRET cellular assay for LRRK2 Ser935 phosphorylation, SH-SY5Y cells, BacMam LRRK2-GFP G2019S (incl. Tocriscreen Mini library screen and follow-up); format: cell-based; design: This high-throughput assay utilizes cells expressing full-length human LRRK2 with a C-terminal GFP tag (LRRK2-GFP); host or cells: SH-SY5Y cells transduced with BacMam; conditions: for IC50: three independent experiments
Procedure: as §1, §2
40 nL of 10 mM Tocris library compounds in DMSO were dispensed into each well of the assay plate by the ECHO system. Equal volumes of DMSO were dispensed into the control wells. Cells were incubated with compounds for 90 to 120 min prior to cell lysis and detection as described above. The percent inhibition is calculated as: [(average emission ratios of DMSO control wells – average emission ratios of compound wells)/(average emission ratios of DMSO control wells – average emission ratios of LRRK2-IN-1 treated wells)] * 100. For the dose-response follow-up studies, fresh compound DMSO stock solutions were prepared from powder. […] Z′-factor value was calculated as: Z′-factor = 1 - [(3 × stdevLRRK2-IN-1+3 × stdevDMSO)/(avgDMSO – avgLRRK2-IN-1)]. The IC50 values reported in Table 2 are the averaged numbers from three independent experiments for both cellular and biochemical TR-FRET assays and one representative result of two independent experiments for the cytotoxicity assay.

LRRK2 wild-type [5] = target: T2, LRRK2 wild-type; assay: TR-FRET cellular assay for LRRK2 Ser935 phosphorylation, HEK293T cells, BacMam LRRK2-GFP wild-type; design: This high-throughput assay utilizes cells expressing full-length human LRRK2 with a C-terminal GFP tag (LRRK2-GFP); host or cells: HEK293T cells transduced with BacMam; conditions: WT, +/- SD, three independent experiments, * = partial inhibition, read-out: IC50, TR-FRET cell-based assay for Ser935 phosphorylation of LRRK2
Procedure: as §1, §2

LRRK2 G2019S [6] = target: T1, LRRK2 G2019S; assay: TR-FRET cellular assay for LRRK2 Ser935 phosphorylation, HEK293T cells, BacMam LRRK2-GFP G2019S; design: This high-throughput assay utilizes cells expressing full-length human LRRK2 with a C-terminal GFP tag (LRRK2-GFP); host or cells: HEK293T cells transduced with BacMam; conditions: +/- SD, three independent experiments, * = partial inhibition, read-out: IC50, TR-FRET cell-based assay for Ser935 phosphorylation of LRRK2
Procedure: as §1, §2

LRRK2 G2019S [7] = target: T1, LRRK2 G2019S; assay: TR-FRET cellular assay for LRRK2 Ser935 phosphorylation, U-2 OS cells, BacMam LRRK2-GFP G2019S; format: cell-based; design: This high-throughput assay utilizes cells expressing full-length human LRRK2 with a C-terminal GFP tag (LRRK2-GFP); host or cells: U-2 OS, SH-SY5Y, HEK293T cells or human neural stem cells transduced with BacMam; conditions: G2019S, +/- SD, three independent experiments, * = partial inhibition, read-out: IC50, TR-FRET cell-based assay for Ser935 phosphorylation of LRRK2
Procedure: as §1, §2

T2 sequence (Q5S007 whole entry): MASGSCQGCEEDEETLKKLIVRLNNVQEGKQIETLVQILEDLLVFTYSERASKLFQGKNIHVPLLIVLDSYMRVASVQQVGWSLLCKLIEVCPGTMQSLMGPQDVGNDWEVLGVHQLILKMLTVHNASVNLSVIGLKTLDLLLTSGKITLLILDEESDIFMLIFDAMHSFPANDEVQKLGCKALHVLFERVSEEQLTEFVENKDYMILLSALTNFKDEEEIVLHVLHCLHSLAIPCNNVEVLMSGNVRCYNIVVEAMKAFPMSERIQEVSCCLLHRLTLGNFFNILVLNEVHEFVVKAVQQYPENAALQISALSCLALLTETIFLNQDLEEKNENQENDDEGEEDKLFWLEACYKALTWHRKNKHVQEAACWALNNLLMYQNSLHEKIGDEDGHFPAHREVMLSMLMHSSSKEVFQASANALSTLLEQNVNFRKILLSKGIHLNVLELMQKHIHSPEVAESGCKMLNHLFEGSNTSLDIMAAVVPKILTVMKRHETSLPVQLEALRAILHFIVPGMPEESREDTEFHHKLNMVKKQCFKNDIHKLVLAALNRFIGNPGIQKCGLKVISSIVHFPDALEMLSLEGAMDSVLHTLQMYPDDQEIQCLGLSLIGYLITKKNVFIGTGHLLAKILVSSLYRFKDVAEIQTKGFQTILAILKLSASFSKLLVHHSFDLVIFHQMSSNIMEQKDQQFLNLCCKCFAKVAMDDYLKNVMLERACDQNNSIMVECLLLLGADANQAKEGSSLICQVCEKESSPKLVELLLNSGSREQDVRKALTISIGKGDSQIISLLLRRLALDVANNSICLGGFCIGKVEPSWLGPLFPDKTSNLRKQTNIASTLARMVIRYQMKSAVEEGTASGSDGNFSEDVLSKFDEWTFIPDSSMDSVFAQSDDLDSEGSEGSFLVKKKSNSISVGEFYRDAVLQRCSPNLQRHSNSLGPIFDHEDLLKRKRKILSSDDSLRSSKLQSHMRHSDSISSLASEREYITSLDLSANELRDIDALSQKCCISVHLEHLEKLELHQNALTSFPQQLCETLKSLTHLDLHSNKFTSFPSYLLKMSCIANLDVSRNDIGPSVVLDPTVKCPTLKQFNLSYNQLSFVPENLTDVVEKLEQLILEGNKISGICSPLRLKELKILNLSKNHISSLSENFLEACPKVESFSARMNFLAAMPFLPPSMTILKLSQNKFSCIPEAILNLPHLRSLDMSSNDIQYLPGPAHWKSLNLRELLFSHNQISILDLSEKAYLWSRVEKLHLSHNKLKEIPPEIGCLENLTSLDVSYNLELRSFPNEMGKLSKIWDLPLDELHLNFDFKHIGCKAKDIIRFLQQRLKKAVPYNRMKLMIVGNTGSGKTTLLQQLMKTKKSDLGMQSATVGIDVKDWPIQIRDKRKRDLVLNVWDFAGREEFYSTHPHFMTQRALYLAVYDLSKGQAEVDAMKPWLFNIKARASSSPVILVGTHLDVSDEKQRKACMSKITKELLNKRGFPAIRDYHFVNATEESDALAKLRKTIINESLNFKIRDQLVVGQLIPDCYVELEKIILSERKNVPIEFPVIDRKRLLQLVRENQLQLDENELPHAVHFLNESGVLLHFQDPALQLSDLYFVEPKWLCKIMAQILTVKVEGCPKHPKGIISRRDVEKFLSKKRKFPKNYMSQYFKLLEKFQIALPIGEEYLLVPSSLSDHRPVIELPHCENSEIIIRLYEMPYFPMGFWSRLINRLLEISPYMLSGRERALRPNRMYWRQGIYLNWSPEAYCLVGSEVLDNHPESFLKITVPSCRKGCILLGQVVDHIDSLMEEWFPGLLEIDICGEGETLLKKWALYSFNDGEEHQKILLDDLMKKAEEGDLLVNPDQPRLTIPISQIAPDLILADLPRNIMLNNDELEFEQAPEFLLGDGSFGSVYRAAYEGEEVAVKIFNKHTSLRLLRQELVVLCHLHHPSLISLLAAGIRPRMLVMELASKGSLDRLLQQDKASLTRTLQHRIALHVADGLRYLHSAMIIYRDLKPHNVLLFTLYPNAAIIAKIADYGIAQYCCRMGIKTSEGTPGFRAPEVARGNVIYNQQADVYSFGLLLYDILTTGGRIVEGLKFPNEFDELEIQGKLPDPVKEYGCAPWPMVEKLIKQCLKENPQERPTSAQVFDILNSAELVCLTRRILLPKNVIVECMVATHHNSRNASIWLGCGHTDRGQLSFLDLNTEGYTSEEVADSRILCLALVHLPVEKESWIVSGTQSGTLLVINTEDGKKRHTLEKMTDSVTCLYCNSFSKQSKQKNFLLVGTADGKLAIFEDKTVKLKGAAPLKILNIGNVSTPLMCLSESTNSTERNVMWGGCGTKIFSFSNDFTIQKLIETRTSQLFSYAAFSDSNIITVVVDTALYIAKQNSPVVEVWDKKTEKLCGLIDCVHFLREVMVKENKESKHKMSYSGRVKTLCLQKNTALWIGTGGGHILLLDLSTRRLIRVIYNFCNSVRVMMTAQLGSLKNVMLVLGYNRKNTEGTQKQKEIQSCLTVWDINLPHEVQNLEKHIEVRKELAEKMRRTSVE
T1 sequence (Q5S007 whole entry G2019S): as the sequence (Q5S007 whole entry) above, with G2019S counted along it

## O=Nc1c(-c2c(O)[nH]c3ccccc23)[nH]c2ccccc12 [Indirubin-3-monoxime, Indirubin-3′-monoxime]
LRRK2 G2019S [1]; LRRK2 G2019S, ATP 134 µM (Km,app), LRRKtide substrate, three independent experiments, read-out: Biochemical LRRK2 assay IC50 +/- SD
  IC50: > 10 µM
LRRK2 G2019S [1]; result in words
  effect on LRRK2 activity in vitro: did not repress LRRK2 activity in vitro
In vitro
  IC50: > 20 µM
LRRK2 wild-type [2]
  IC50: 3.78 µM
LRRK2 wild-type [3]
  IC50: > 10 µM
LRRK2 G2019S [4]; SH-SY5Y, G2019S, +/- SD, * = partial inhibition, read-out: IC50, TR-FRET cell-based assay for Ser935 phosphorylation of LRRK2
  IC50: 6.15 µM
LRRK2 G2019S [4]; SH-SY5Y, Tocriscreen Mini library screen, 20 µM, SH-SY5Y G2019S, relative to LRRK2-IN-1 control, read-out: %Inhibition Initial screen
  inhibition at 20 µM: 63.5%
LRRK2 G2019S [4]; dose-response follow-up, SH-SY5Y G2019S, 90 min
  Cellular TR-FRET Assay Max % Inhibition: 64%
LRRK2 G2019S [4]; dose-response follow-up, SH-SY5Y G2019S, read-out: Cellular TR-FRET Assay IC50 +/-SD
  IC50: 4.4 µM
LRRK2 wild-type [5]
  IC50: 3.68 µM
LRRK2 G2019S [6]
  IC50: 2780 nM
LRRK2 G2019S [7]
  IC50: 1930 nM
